Results reported in ChEMBL document CHEMBL3112450, “Synthesis and in vitro antitumor evaluation of primary amine substituted quinazoline linked benzimidazole” (Bioorg Med Chem Lett, 2014).

Legend:
Format in all cases: functional
A549 = experiment: Cytotoxicity against human A549 cells assessed as cell growth at 10^-5 M after 48 hrs by SRB assay; conditions: A549, 48 h, read-out: Activity
MCF7 = experiment: Cytotoxicity against human MCF7 cells assessed as cell growth at 10^-5 M after 48 hrs by SRB assay; conditions: MCF7, 48 h, read-out: Activity
SF-268 = experiment: Cytotoxicity against human SF268 cells assessed as cell growth at 10^-5 M after 48 hrs by SRB assay; conditions: SF-268, 48 h, read-out: Activity
LOX IMVI = experiment: Cytotoxicity against human LOXIMVI cells assessed as cell growth at 10^-5 M after 48 hrs by SRB assay; conditions: read-out: Activity
SK-MEL-2 = experiment: Cytotoxicity against human SK-MEL-2 cells assessed as cell growth at 10^-5 M after 48 hrs by SRB assay; conditions: SK-MEL-2, 48 h, read-out: Activity
786-0 = experiment: Cytotoxicity against human 786-0 cells assessed as cell growth at 10^-5 M after 48 hrs by SRB assay; conditions: 786-0, 48 h, read-out: Activity
MDA-MB-231 = experiment: Cytotoxicity against human MDA-MB-231 cells assessed as cell growth at 10^-5 M after 48 hrs by SRB assay; conditions: MDA-MB-231, 48 h, read-out: Activity
MDA-MB-468 = experiment: Cytotoxicity against human MDA-MB-468 cells assessed as cell growth at 10^-5 M after 48 hrs by SRB assay; conditions: MDA-MB-468, 48 h, read-out: Activity
CCRF-CEM = experiment: Cytotoxicity against human CCRF-CEM cells assessed as cell growth at 10^-5 M after 48 hrs by SRB assay; conditions: read-out: Activity
[1] = Cytotoxicity against human OVCAR5 cells assessed as cell growth at 10^-5 M after 48 hrs by SRB assay; conditions: OVCAR-5, 48 h, read-out: Activity
SF-295 = experiment: Cytotoxicity against human SF295 cells assessed as cell growth at 10^-5 M after 48 hrs by SRB assay; conditions: SF-295, 48 h, read-out: Activity
TK-10 = experiment: Cytotoxicity against human TK10 cells assessed as cell growth at 10^-5 M after 48 hrs by SRB assay; conditions: TK-10, 48 h, read-out: Activity
SNB-75 = experiment: Cytotoxicity against human SNB75 cells assessed as cell growth at 10^-5 M after 48 hrs by SRB assay; conditions: SNB-75, 48 h, read-out: Activity
SNB-19 = experiment: Cytotoxicity against human SNB19 cells assessed as cell growth at 10^-5 M after 48 hrs by SRB assay; conditions: SNB-19, 48 h, read-out: Activity
[2] = Cytotoxicity against human UO31 cells assessed as cell growth at 10^-5 M after 48 hrs by SRB assay; conditions: UO-31, 48 h, read-out: Activity
HOP-62 = experiment: Cytotoxicity against human HOP62 cells assessed as cell growth at 10^-5 M after 48 hrs by SRB assay; conditions: HOP-62, 48 h, read-out: Activity
NCI-H460 = experiment: Cytotoxicity against human NCI-H460 cells assessed as cell growth at 10^-5 M after 48 hrs by SRB assay; conditions: NCI-H460, 48 h, read-out: Activity
UACC-62 = experiment: Cytotoxicity against human UACC62 cells assessed as cell growth at 10^-5 M after 48 hrs by SRB assay; conditions: UACC-62, 48 h, read-out: Activity
MDA-MB-435 = experiment: Cytotoxicity against human MDA-MB-435 cells assessed as cell growth at 10^-5 M after 48 hrs by SRB assay; conditions: MDA-MB-435, 48 h, read-out: Activity
HCC 2998 = experiment: Cytotoxicity against human HCC2998 cells assessed as cell growth at 10^-5 M after 48 hrs by SRB assay; conditions: HCC 2998, 48 h, read-out: Activity
NCI-H226 = experiment: Cytotoxicity against human NCI-H226 cells assessed as cell growth at 10^-5 M after 48 hrs by SRB assay; conditions: NCI-H226, 48 h, read-out: Activity
SK-OV-3 = experiment: Cytotoxicity against human SKOV3 cells assessed as cell growth at 10^-5 M after 48 hrs by SRB assay; conditions: SK-OV-3, 48 h, read-out: Activity
MOLT-4 = experiment: Cytotoxicity against human MOLT4 cells assessed as cell growth at 10^-5 M after 48 hrs by SRB assay; conditions: MOLT-4, 48 h, read-out: Activity
K562 = experiment: Cytotoxicity against human K562 cells assessed as cell growth at 10^-5 M after 48 hrs by SRB assay; conditions: K562, 48 h, read-out: Activity
A498 = experiment: Cytotoxicity against human A498 cells assessed as cell growth at 10^-5 M after 48 hrs by SRB assay; conditions: A498, 48 h, read-out: Activity
NCI-H522 = experiment: Cytotoxicity against human NCI-H522 cells assessed as cell growth at 10^-5 M after 48 hrs by SRB assay; conditions: NCI-H522, 48 h, read-out: Activity
HCT-116 = experiment: Cytotoxicity against human HCT116 cells assessed as cell growth at 10^-5 M after 48 hrs by SRB assay; conditions: HCT-116, 48 h, read-out: Activity
ACHN = experiment: Cytotoxicity against human ACHN cells assessed as cell growth at 10^-5 M after 48 hrs by SRB assay; conditions: read-out: Activity
SW-620 = experiment: Cytotoxicity against human SW620 cells assessed as cell growth at 10^-5 M after 48 hrs by SRB assay; conditions: SW-620, 48 h, read-out: Activity
BT-549 = experiment: Cytotoxicity against human BT549 cells assessed as cell growth at 10^-5 M after 48 hrs by SRB assay; conditions: BT-549, 48 h, read-out: Activity
[3] = Cytotoxicity against human NCI-ADR-RES cells assessed as cell growth at 10^-5 M after 48 hrs by SRB assay; conditions: read-out: Activity
OVCAR-8 = experiment: Cytotoxicity against human OVCAR8 cells assessed as cell growth at 10^-5 M after 48 hrs by SRB assay; conditions: OVCAR-8, 48 h, read-out: Activity
COLO 205 = experiment: Cytotoxicity against human COLO205 cells assessed as cell growth at 10^-5 M after 48 hrs by SRB assay; conditions: COLO 205, 48 h, read-out: Activity
Malme-3M = experiment: Cytotoxicity against human MALME-3M cells assessed as cell growth at 10^-5 M after 48 hrs by SRB assay; conditions: read-out: Activity
RPMI-8226 = experiment: Cytotoxicity against human RPMI8226 cells assessed as cell growth at 10^-5 M after 48 hrs by SRB assay; conditions: RPMI-8226, 48 h, read-out: Activity
T47D = experiment: Cytotoxicity against human T47D cells assessed as cell growth at 10^-5 M after 48 hrs by SRB assay; conditions: read-out: Activity
HOP-92 = experiment: Cytotoxicity against human HOP92 cells assessed as cell growth at 10^-5 M after 48 hrs by SRB assay; conditions: HOP-92, 48 h, read-out: Activity

SMILES	growth at 10 µM (A549) [%]	growth at 10 µM (MCF7) [%]	growth at 10 µM (SF-268) [%]	growth at 10 µM (LOX IMVI) [%]	growth at 10 µM (SK-MEL-2) [%]	growth at 10 µM (786-0) [%]	growth at 10 µM (MDA-MB-231) [%]	growth at 10 µM (MDA-MB-468) [%]	growth at 10 µM (CCRF-CEM) [%]	growth at 10 µM [1] [%]	growth at 10 µM (SF-295) [%]	growth at 10 µM (TK-10) [%]	growth at 10 µM (SNB-75) [%]	growth at 10 µM (SNB-19) [%]	growth at 10 µM [2] [%]	growth at 10 µM (HOP-62) [%]	growth at 10 µM (NCI-H460) [%]	growth at 10 µM (UACC-62) [%]	growth at 10 µM (MDA-MB-435) [%]	growth at 10 µM (HCC 2998) [%]	also measured
C=CCn1c(C)nc2ccc(Nc3nc(Nc4ccc5nc(C)n(CC=C)c5c4)c4ccccc4n3)cc21	-90	-100	-77	-91	-88	-93.8	-100	-99	-20.8	-98	-80	-97	-95.2	-69	-91.4	-100	-74	-100	-84	-100	growth at 10 µM (NCI-H226): -87%; growth at 10 µM (SK-OV-3): -100%; growth at 10 µM (MOLT-4): -45.5%; growth at 10 µM (K562): -49%; growth at 10 µM (A498): -91%; growth at 10 µM (NCI-H522): -94%; growth at 10 µM (HCT-116): -100%; growth at 10 µM (ACHN): -99%; growth at 10 µM (SW-620): -91%; growth at 10 µM (BT-549): -86%; growth at 10 µM [3]: -25%; growth at 10 µM (OVCAR-8): -76%; growth at 10 µM (COLO 205): -100%; growth at 10 µM (Malme-3M): -78.9%; growth at 10 µM (RPMI-8226): -43.3%; growth at 10 µM (T47D): -91%; growth at 10 µM (HOP-92): -80%
C=CCn1c(C)nc2cc(Nc3nc(Nc4ccc5nc(C)n(CC=C)c5c4)c4ccccc4n3)ccc21	-67.1	-89.3	-99	-94	-84.1	-80	-89	-85	-29	-98	-100	-100	-96.7	-75	-99	-99.5	-84.2	-94	-92	-98	growth at 10 µM (NCI-H226): -47.1%; growth at 10 µM (SK-OV-3): -95.7%; growth at 10 µM (MOLT-4): -29%; growth at 10 µM (K562): -67%; growth at 10 µM (A498): -100%; growth at 10 µM (NCI-H522): -94.8%; growth at 10 µM (HCT-116): -96.5%; growth at 10 µM (ACHN): -100%; growth at 10 µM (SW-620): -76.2%; growth at 10 µM (BT-549): -96%; growth at 10 µM [3]: -46%; growth at 10 µM (OVCAR-8): -40.9%; growth at 10 µM (COLO 205): -100%; growth at 10 µM (Malme-3M): -76%; growth at 10 µM (RPMI-8226): -41%; growth at 10 µM (T47D): -60.4%; growth at 10 µM (HOP-92): -97%
